Where “and” joins values, the source holds several entries; their conditions need not be identical. Equal entries are not always repeated. Structures can show the parent of a compound that is named as a salt.
Columns and labels:
Proteus mirabills = assay: Activity in vitro and in clinical infections; assay type: cell-based
[1] = Physicochemical properties of lomefloxacin HCl
patients = assay: Clinical trials, adverse events; assay type: in vivo, human
Text: Photosensitivity and/or phototoxicity reactions have been reported in clinical trials of lomefloxacin HCl to varying degrees. […] These photosensitivity and/or phototoxicity reactions have also occurred in subjects exposed to shaded or diffuse light, including exposure through glass.
In clinical trials, most of the adverse events reported were mild to moderate in severity and transient in nature. During these clinical investigations, 2869 patients received MAXAQUIN®. In 2.6% of the patients, lomefloxacin was discontinued because of adverse events, primarily involving the gastrointestinal system (0.7%), skin (1.0%), or central nervous system (0.5%). The adverse clinical events with the highest incidence (≥1%) in patients, regardless of relationship to drug, were nausea (3.7%), headache (3.2%), photosensitivity (2.4%), dizziness (2.3%), and diarrhea (1.4%).

[2] = tested on: gram-negative and gram-positive organisms; assay: Bactericidal activity in vitro, MBC relative to MIC; assay type: cell-based
[3] = tested on: skin of healthy volunteers; parameters: species or system human; conditions: in vivo
Procedure: This study describes a randomized, single site, double-blind, two treatment, two period, two sequence, cross-over clinical pharmacology study which was performed according to FDA regulations in 27 healthy normal volunteers with fair skin that could easily burn when exposed to sunlight, to assess the photosensitivity and/or phototoxicity potential of oral 400 mg lomefloxacin hydrochloride (MAXAQUIN®) administered once daily for 4 consecutive days either in the morning (morning dose group), as described hereinbelow, or in the early evening (evening dose group), as described hereinbelow. Irradiation and evaluation of irradiated sites began at 2 hours after the final morning dose of lomefloxacin HCl for the morning dosing group, and began 16 hours after the final evening dose of lomefloxacin HCl for the evening dosing group.
"Baseline MED" was defined as the lowest dose of UVA radiation alone, or UVA and UVB radiation, that produced a minimal perceptible erythema filling a 1 cm^2 patch of skin 24 hours post radiation.
"Delayed MED" was defined as the lowest dose of UVA radiation alone, or UVA and UVB radiation, that produced a minimal perceptible erythema filling a 1 cm^2 patch of skin, when testing the area 24, 48 and 72 hours post radiation.
"Immediate MED" was defined as the lowest dose producing minimal perceptible erythema filling a 1 cm^2 patch of skin when testing the area 0, 3, and 6 hours post radiation.
After all baseline procedures, including determination of baseline MEDUVA and MEDUVA+UVB values 24 hours post-radiation, were completed, all subjects started Study Day 1 of Treatment Period 1 with an evening dose of study medication, and completed this phase of the treatment regime with a morning dose of study medication on Study Day 5. Two hours after the final morning dose, and 16 hours after the last evening dose, a randomly selected site composed of six patches of skin, each with an area of one square centimeter, on the back or buttock of the subject was irradiated with incremental amounts of energy. Immediately following irradiation (0 hour), and at 3, 6, 24, 48 and 72 hours following irradiation, each skin patch area was evaluated to determine the MEDs, and assess the severity of skin reaction using a five-grade system, as described hereinbelow. The lowest of the MEDs determined at 0, 3 and 6 hours post-radiation were referred to as immediate MEDs, and the lowest of the MEDs determined at 24, 48 and 72 hours post-radiation were referred to as delayed MEDs.
The source of radiation employed was an Oriel (Santa Monica, Calif.) Xenon Arc 1000 watt solar simulator, with the following filters: WG320 filter (1 mm thick, emitting full spectrum UVA and UVB radiation), WG335 filter (3 mm thick, emitting almost exclusively UVA radiation) or UG11 filter (to filter infrared radiation).
For predrug exposure MED determination, 2 sets each with six 1 cm^2 patches on the back or buttocks were irradiated with increasing doses of UVA and UVB radiation, and UVA radiation alone, up to 7 days prior to beginning of drug treatment. With respect to UVA light source, irradiation began at 5 J/cm^2, and was increased by increments of 5 J/cm^2 using a different skin patch for each exposure. The maximum radiation dose was 30 J/cm^2. Subjects with MED greater than 30 J/cm^2 were excluded from the study. […] A different skin patch was used for each exposure.
Two hours after the administration of the last dose of Treatment Period 1 (a.m. dose), the two randomly selected sites on each subject's back or buttocks were exposed one to UVA and UVB radiation, and one to UVA radiation alone. In order to protect the subjects from excessive radiation, as well as assess the true Minimum Erythema Dose (MED), the posttreatment irradiation doses for each subject was adjusted in accordance with their pretreatment MEDs. The following table was used to determine each subject's minimum and maximum posttreatment radiation dose: […]

Citrobacter diversus = assay: Activity in vitro and in clinical infections; assay type: cell-based
[4] = tested on: Staphylococcus saprophyticus; assay: Activity in vitro and in clinical infections; assay type: cell-based
[5] = in vivo
[6] = Example 5: lomefloxacin plasma concentrations; conditions: for concentration at 14 h: Hour 14, mean; for plasma concentration, Hour 86: 72 hours following last active dose
[7] = regardless of relationship to drug
[8] = human, plasma, mean, a.m. dosing
[9] = human, plasma, mean, p.m. dosing

## CCn1cc(C(=O)O)c(=O)c2cc(F)c(N3CCNC(C)C3)c(F)c21 (racemic) [lomefloxacin HCl, monohydrochloride salt of (±)-1-ethyl-6,8-difluoro-1,4-dihydro-7-(3-methyl-1-piperazinyl)-4-oxo-3-quinolinecarboxylic acid]
Proteus mirabills
  activity against most strains: active against most strains
[1]
  solubility in alcohol: practically insoluble in alcohol
  solubility in water: slightly soluble in water
patients; 2869 patients
  discontinued because of adverse events: 2.6%
  discontinued because of adverse events, central nervous system: 0.5%
  discontinued because of adverse events, gastrointestinal system: 0.7%
  discontinued because of adverse events, skin: 1.0%
patients; clinical trials
  incidence of photosensitivity: 2.4%
patients; patients exposed to sunlight or artificial ultraviolet light
  photosensitivity and/or phototoxic reactions: Moderate to severe photosensitivity and/or phototoxic reactions have occurred
patients; [7]
  incidence of diarrhea: 1.4%
  incidence of dizziness: 2.3%
  incidence of headache: 3.2%
  incidence of nausea: 3.7%
[2]; generally, except staphylococci
  MBC relative to MIC: ≤ 2 factor
[2]; in vitro
  antibacterial activity: bactericidal agent with in vitro activity against a wide range of gram-negative and gram-positive organisms
[3]
  MED, 0 H, mean: 0.094 J/cm^2
  amount of UVA+UVB radiation to give MED versus UVA alone: over 100 times less
  change of immediate MEDUVA+UVB from baseline: not statistically significant
  change of immediate and delayed MEDUVA+UVB from baseline: neither the changes between baseline and posttreatment immediate MEDUVA+UVB, nor between baseline and posttreatment delayed MEDUVA+UVB, were statistically significant
  change of immediate and delayed MEDUVA+UVB, a.m. versus p.m.: statistically significant difference
  photosensitivity with UVA plus UVB radiation: no increase in photosensitivity
Citrobacter diversus
  activity against most strains: active against most strains
[4]
  activity against most strains: active against most strains
[5]
  time of peak plasma concentration following dosing: approximately two
[6]; [8]
  AUC: 47000 ng·h/mL
  Cmax: 3000 ng/mL
[6]; [9]
  AUC: 40000 ng·h/mL
  Cmax: 2900 ng/mL
[6]; human, plasma, Tmax, mean, a.m. dosing, sample hour scale
  Tmax: 14.9 h
[6]; human, plasma, Tmax, mean, p.m. dosing
  Tmax: 2.9 h
[6]; human, plasma, plasma concentration, Hour 2, mean, mean, a.m. dosing, 12 hours prior to last active dose
  concentration at 2 h: 1100 ng/mL
[6]; human, plasma, plasma concentration, Hour 2, mean, mean, p.m. dosing, 2 hours following last active dose
  concentration at 2 h: 2900 ng/mL
[6]; human, plasma, plasma concentration, mean, a.m. dosing, immediately prior to last active dose
  concentration at 14 h: 300 ng/mL
[6]; human, plasma, plasma concentration, mean, p.m. dosing, 14 hours following last active dose
  concentration at 14 h: 1000 ng/mL
[6]; human, plasma, plasma concentration, Hour 16, individual subjects, a.m. dosing, 2 hours following last active dose
  concentration at 2 h: 2920 ng/mL
[6]; human, plasma, plasma concentration, Hour 16, mean, mean, a.m. dosing, 2 hours following last active dose
  concentration at 2 h: 3100 ng/mL
[6]; human, plasma, plasma concentration, Hour 16, mean, mean, p.m. dosing, 16 hours following last active dose
  concentration at 16 h: 800 ng/mL
[6]; human, plasma, plasma concentration, Hour 19, individual subjects, a.m. dosing, 5 hours following last active dose
  concentration at 5 h: 1850 ng/mL
[6]; human, plasma, plasma concentration, Hour 19, mean, mean, a.m. dosing, 5 hours following last active dose
  concentration at 5 h: 2200 ng/mL
[6]; human, plasma, plasma concentration, Hour 19, mean, mean, p.m. dosing, 19 hours following last active dose
  concentration at 19 h: 600 ng/mL
[6]; human, plasma, plasma concentration, Hour 38, mean, mean, a.m. dosing, 24 hours following last active dose
  concentration at 24 h: 300 ng/mL
[6]; human, plasma, plasma concentration, Hour 38, mean, mean, p.m. dosing, 38 hours following last active dose
  concentration at 38 h: 100 ng/mL
[6]; individual subjects, a.m. dosing, 2 hours following last active dose, 120 min
  plasma concentration, Hour 16: 2420 ng/mL and 3160 ng/mL and 3730 ng/mL and 3000 ng/mL and 3660 ng/mL and 2650 ng/mL and 2840 ng/mL and 2950 ng/mL and 3050 ng/mL and 2940 ng/mL and 4040 ng/mL and 2580 ng/mL
[6]; individual subjects, a.m. dosing, 5 hours following last active dose, 300 min
  plasma concentration, Hour 19: 1710 ng/mL and 1810 ng/mL and 2370 ng/mL and 2360 ng/mL and 2280 ng/mL and 1780 ng/mL and 2060 ng/mL and 1750 ng/mL and 1720 ng/mL and 2880 ng/mL and 3060 ng/mL and 2390 ng/mL
[6]; individual subjects, a.m. dosing, 12 hours prior to last active dose, 120 min
  plasma concentration, Hour 2: 786 ng/mL and 1030 ng/mL and 889 ng/mL and 1460 ng/mL and 1360 ng/mL and 711 ng/mL and 1090 ng/mL and 840 ng/mL and 915 ng/mL and 1200 ng/mL and 1280 ng/mL and 1110 ng/mL and 1500 ng/mL
[6]; individual subjects, a.m. dosing, 14 hours prior to last active dose
  plasma concentration, Hour 0: 1160 ng/mL and 1060 ng/mL and 1540 ng/mL and 1520 ng/mL and 1350 ng/mL and 901 ng/mL and 1370 ng/mL and 1080 ng/mL and 1180 ng/mL and 1720 ng/mL and 1360 ng/mL and 1800 ng/mL
[6]; individual subjects, a.m. dosing, 24 hours following last active dose, 1440 min
  plasma concentration, Hour 38: 230 ng/mL and 318 ng/mL and 281 ng/mL and 346 ng/mL and 467 ng/mL and 319 ng/mL and 251 ng/mL and 361 ng/mL and 201 ng/mL and 157 ng/mL and 258 ng/mL and 263 ng/mL and 367 ng/mL
[6]; individual subjects, a.m. dosing, 48 hours following last active dose, 2880 min
  plasma concentration, Hour 62: 39 ng/mL and 64 ng/mL and 27 ng/mL and 54 ng/mL and 73 ng/mL and 35 ng/mL and 53 ng/mL and 21 ng/mL and 16 ng/mL and 36 ng/mL
[6]; individual subjects, a.m. dosing
  plasma concentration, Hour 86: 0 ng/mL
[6]; individual subjects, a.m. dosing, 4320 min
  plasma concentration, Hour 86: 11 ng/mL and 16 ng/mL and 6 ng/mL and 13 ng/mL and 19 ng/mL and 7 ng/mL and 9 ng/mL and 17 ng/mL
[6]; individual subjects, a.m. dosing, immediately prior to last active dose, 840 min
  plasma concentration, Hour 14: 271 ng/mL and 368 ng/mL and 243 ng/mL and 385 ng/mL and 479 ng/mL and 297 ng/mL and 210 ng/mL and 350 ng/mL and 204 ng/mL and 279 ng/mL and 317 ng/mL and 283 ng/mL and 419 ng/mL
[6]; individual subjects, a.m. dosing, sample hour scale
  Tmax: 16 h and 0 h
[6]; individual subjects, p.m. dosing
  Tmax: 14 h
[6]; mean, a.m. dosing, 14 hours prior to last active dose
  plasma concentration, Hour 0, mean: 1300 ng/mL
